For orientation: IC50 means the concentration that gives 50% inhibition. Read a high IC50 as weaker potency in that assay.

The subject of one test is HT29 (colon) cells. The test is described as follows: Transwell cell migration assay, HT29. Format: cell-based. The conditions noted are these: Homo sapiens, HT-29. The text has this:
(§1) A375 (melanoma) (CRL-1619, ATCC, Manassas, Va., USA), A431 (melanoma) (CRL-2592, ATCC, Manassas, Va., USA), A2058 (melanoma) (CRL-11147, ATCC, Manassas, Va., USA), MDA-MB-231 (breast) (HTB-26, ATCC, Manassas, Va., USA), LS175T (colon) (ATCC, Manassas, Va., USA), HT29 (colon) (HTB-38, ATCC, Manassas, Va., USA), PC3 (prostate) (CRL-1435, ATCC, Manassas, Va., USA), Panc03.27 (pancreatic) (ATCC, Manassas, Va., USA), 4T1 (breast-mouse) (CRL-2539, ATCC, Manassas. Va., USA), D122 (lung-mouse) (the Weizmann Institute of Science), D122-luc (lung-mouse) (the Weizmann Institute of Science), and B16 F10.9 (melanoma-mouse) cells (Caliper Life Sciences, Hopkinton Mass.), were grown in RPMI medium supplemented with 10% FBS. HUVEC cells were grown in Endothelial Cell Growth Medium 2 and THP1 cells were grown in RPMI medium supplemented with 10% FBS, 2 mM L-Glutamine, 1.5 g/L sodium bicarbonate, 10 mM Hepes, 1 mM sodium pyruvate, 4.5 g/L glucose and 0.05 mM 2-mercaptoethanol. The cells were starved for 24 hours in medium without FBS. […] Cells that migrated to the lower side of the membrane were stained with Calcein-AM (Sigma) and images were taken with a fluorescence microscope. The number of migrating cells was quantified by ImageJ software and the IC50 values were calculated using Prism software (Graphpad).

The subject of another test is A2058 (melanoma) cells. In words: Transwell cell migration assay, A2058. Type of test: cell-based. The conditions noted are these: Homo sapiens.
Excerpt: as §1

The test system of another test is 4T1 (breast-mouse) cells. In words: Transwell cell migration assay, 4T1. Type of test: cell-based.
Excerpt: as §1

A further test relates to A431 (melanoma) cells. The test is described as follows: Transwell cell migration assay, A431. Format: cell-based. The conditions noted are these: Homo sapiens, A-431.
Excerpt: as §1

A further test concerns LS175T (colon) cells. In words: Transwell cell migration assay, LS175T. Format: cell-based.
Excerpt: as §1

The test system of another test is HUVEC cells. The test is described as follows: HUVEC tube-formation assay. Type of test: cell-based, human. The conditions noted are these: 25 μM, 6 h, BME with 50 ng/ml VEGF (FIG. 3). Here is the method:
Human umbilical vein endothelial cells (HUVEC) were grown routinely in Endothelial Cell Growth Medium 2 with SupplementMix (PromoCell, Germany) containing 15% fetal bovine serum. For Tube-formation assay, 1×10^4 cells, in the above medium containing 5% fetal bovine serum, were seeded on top of Cultrex reduced growth factor Basement Membrane Extract (BME) (R&D Systems, Minneapolis, Minn.) supplemented with 50 ng/ml VEGF (Prospec, Israel). The cells were treated with either solvent (50% DMSO/50% PEG400), 25 μM compound 1 (PRT7000467), 10 μM LY294004 (Cayman Chemical, Ann Arbor, Mich.) or 3 μM FTY720 (Cayman Chemical, Ann Arbor, Mich.) as indicated. LY294004 is a PI3K inhibitor and FTY720 is a modulator of sphingosine-1-phosphate receptors, both of them served as positive controls. Six hours later the cells were stained with Calcein-AM (Sigma, Israel) and images were taken with a fluorescence microscope.

Another test relates to PC3 (prostate) cells. In words: Transwell cell migration assay, PC3. Format: cell-based.
Excerpt: as §1

In another test the test system is THP1 monocytes. In words: Transwell cell migration assay, THP1. The conditions noted are these: Homo sapiens, THP-1; THP1, Monocyte. Format: cell-based.
Excerpt: as §1

In test [1] the test system is D122-luc (lung-mouse) cells. The test is described as follows: Transwell cell migration assay, D122-luc. Format: cell-based.
Excerpt: as §1

Test [2] deals with MDA-MB-231 breast cancer cells. The test is described as follows: Transwell cell migration assay, MDA-MB-231 breast cancer cells. Format: cell-based. Here is the method: MDA-MB-231 (HTB-26, ATCC, Manassas, Va., USA) and MDA-MB-468 (HTB-132, ATCC, Manassas, Va., USA) breast cancer cell lines and DU 145 (HTB-81, ATCC, Manassas, Va., USA) prostate cancer cell line grown in RPMI medium supplement with 10% FBS were starved for 24 hours in medium without FBS. After 24 hours, 5×10^4 cells in FBS free medium were placed in the upper chamber of 24-well Transwell apparatus (CORNING TRANSWELL® polycarbonate membrane inserts, 8 μm pore size) with solvent (DMSO/PEG400) or 12.5 μM Compound 1 as indicated. Medium with FBS and Compound 1 was added to the bottom chamber. Twenty-four hours later the cells from the upper chamber were removed with a cotton swab. Cells that migrated to the lower side of the membrane were stained with Calcein-AM (Sigma) and images were taken with a fluorescence microscope. […]

The subject of another test is D122 (lung-mouse) cells. In words: Transwell cell migration assay, D122. Format: cell-based.
Excerpt: as §1

The test system of test [3] is MDA-MB231 breast cancer cells. The test is described as follows: Soft agar colony formation, MDA-MB231 breast cancer cells. Format: cell-based. The conditions noted are these: 14 days, MTT. Here is the method: The assay was done using CYTOSELECT™ 96-Well In Vitro Tumor Sensitivity Assay kit from Cell Biolabs, Inc. (San-Diego, Calif.). The cells were grown for 14 days with RPMI and 10% FBS medium in the presence of the indicated concentration of Compound 1 (PRT7000467). The quantification of the colony formation on soft agar was done using MTT reagent after solubilization of the agar (all the materials are supplied in the kit). The IC50 value was calculated using Prism software.

For test [4], the system named is Panc03.27 (pancreatic) cells. In words: Transwell cell migration assay, Panc03.27. Type of test: cell-based. The conditions noted are these: Homo sapiens, PANC-03-27; Panc 03.27, Pancreatic.
Excerpt: as §1

Test [5] concerns B16 F10.9 (melanoma-mouse) cells. In words: Transwell cell migration assay, B16 F10.9. Type of test: cell-based.
Excerpt: as §1

Test [6] deals with DU145 prostate cancer cell line. In words: Transwell cell migration assay, DU 145 prostate cancer cell line. Type of test: cell-based. The conditions noted are these: DU145, 12.5 μM, 24 h, 8 μm pore (FIG. 2). Here is the method:
MDA-MB-231 (HTB-26, ATCC, Manassas, Va., USA) and MDA-MB-468 (HTB-132, ATCC, Manassas, Va., USA) breast cancer cell lines and DU 145 (HTB-81, ATCC, Manassas, Va., USA) prostate cancer cell line grown in RPMI medium supplement with 10% FBS were starved for 24 hours in medium without FBS. After 24 hours, 5×10^4 cells in FBS free medium were placed in the upper chamber of 24-well Transwell apparatus (CORNING TRANSWELL® polycarbonate membrane inserts, 8 μm pore size) with solvent (DMSO/PEG400) or 12.5 μM Compound 1 as indicated. Medium with FBS and Compound 1 was added to the bottom chamber. Twenty-four hours later the cells from the upper chamber were removed with a cotton swab. Cells that migrated to the lower side of the membrane were stained with Calcein-AM (Sigma) and images were taken with a fluorescence microscope.

Consider `Cc1cc(C)nc(NS(=O)(=O)c2ccc(NC(=O)/C(=C\c3cccs3)NC(=O)c3cccs3)cc2)n1` [Compound 1], for which the IC50 in the test with HT29 (colon) cells was found to be 1.5 µM; in the test on A2058 (melanoma) cells, 3.5 µM; in the test with 4T1 (breast-mouse) cells, 0.8 µM; with A431 (melanoma) cells, 1.1 µM; with LS175T (colon) cells it was 1 µM; with PC3 (prostate) cells, 6.3 µM. For the same compound, the IC50 is greater than 30 µM in the test on THP1 monocytes; 1.6 µM in test [1]; 0.5 µM in [2] (Homo sapiens, MDA-MB-231, MDA-MB231, Breast); 1.4 µM in the test with D122 (lung-mouse) cells; 1 µM in [4]; 0.2 µM in test [5]. Moreover, the “formation of tube-like structure by HUVEC cells” value in the test on HUVEC cells is recorded as “inhibits the formation of tube-like structure”. For the same compound, the “cell migration (Transwell, images)” value in [2] (MDA-MB-231, 12.5 μM, 24 h, 8 μm pore (FIG. 2)) was “inhibits the migration”; in test [6] it was “inhibits the migration”. Also, the “soft agar colony formation” value in test [3] (MDA-MB231 breast cancer cells) is reported as “inhibits soft agar colony formation”. In addition, in [3] (MDA-MB231 cells), the “LD50 in the soft agar colony formation assay” value came to 13.08 µM.

(Values after patent publication US20110130374A1, “Small Pyrimidine Derivatives and Methods of Use Thereof” (BIOSEARCH(2007) LTD., priority 2009, published 2011).)
